Patent EP4722207A1, “OXOISOINDOLINYL-SUBSTITUTED TETRAHYDROPYRIMIDINEDIONE DERIVATIVE AND USE THEREOF” (Gluetacs Therapeutics (Shanghai) Co., Ltd., priority 2023, dated 2024)
pIC50: −log10 of the molar value.

Assays:
[1] = target: T1, human Cereblon WT GST-tagged protein (Homo sapiens, UniProt Q96SW2); assay: CRBN-binding affinity, CEREBLON BINDING kit (HTRF); conditions: for inhibition at 0.5 µM: read-out: Inhibition Rate at 0.5 µM (%); for inhibition at 2 µM: read-out: Inhibition Rate at 2 µM (%)
T1 construct: purchased CISBIO 64BDCRBNPEH
From the text: The CEREBLON BINDING kits (specification: 10,000 tests; product number: Catalog # 64BDCRBNPEH; CISBIO company) was used to determine the CRBN binding ability of the compounds to be tested through a HTRF method (homogeneous time-resolved fluorescence). The specific methods are as follows: • 1. […] Specifically, diluent #9 (1X) solution was used as the diluent, and multiple concentration gradients were set. […] Into the 96-well plate, the diluted test compounds and corresponding detection reagents were added, resulting in final test compound concentrations of 2 µM and 0.5 µM, respectively. […] Then, 2.5 µL of human Cereblon WT GST-tagged protein solution was added to each well. Finally, 5 µL of the thoroughly mixed Thalidomide-Re reagent and GST Eu antibody working solution were added to each of the aforementioned wells. […] The blank control wells were sequentially added with 2.5 µL of diluent #9 (1X) solution, 2.5 µL of binding buffer, and 5 µL of thoroughly mixed Thalidomide-Re reagent and GST Eu antibody working solution. • 4. […] OD 620 nm control is the absorbance value of the blank control well at an emission wavelength of 620 nm. […] OD 620 nm Std0 is the absorbance value of the solvent control well at an emission wavelength of 620 nm.

MM.1S = assay: Cell viability assay (CellTiter-Meiluncell Luminescent), tumor cell proliferation, MM.1S; conditions: Homo sapiens, MM1.S, 96 h, read-out: inhibitory activity (IC50, nM) against tumor cells proliferation, MM.1S
MV-4-11 = assay: Cell viability assay (CellTiter-Meiluncell Luminescent), tumor cell proliferation, MV-4-11; conditions: Homo sapiens, MV4-11, 96 h; for inhibition at 0.01 µM: read-out: Inhibition Rate at 10 nM (%); for inhibition at 0.5 µM: read-out: Inhibition Rate at 500 nM (%)
Method: The tumor cells used herein were cultured in a cell culture medium listed in table 2 at 37°C in an incubator with 5% CO2. Prior to experimentation, all cell lines used were correctly identified by STR profiling, and tested negative for mycoplasma contamination using a mycoplasma detection kit through routine screenings.
On the following day, the test compounds of the present disclosure were subjected to serial dilution. […] Subsequently, 0.5 µL of the test compound dilution was transferred into the 96-well plate containing the cells, with each well containing 100 µL of cell culture medium. […] Into the 96-well plate, the diluted test compounds and corresponding detection reagents were added, resulting in final test compound concentrations of 500 nM and 10 nM, respectively. The experimental procedure is described below using the diluted 2 µM test compound as an example.
After the cells were treated with the compounds of the present disclosure for a specified period, the cell viability assay reagent was added to the culture medium according to the kit's instructions to determine cell viability. […] All controls were treated using the same procedure as the compounds of the present disclosure. The growth inhibition curves for the compounds of the present disclosure were plotted using Prism GraphPad software, and the IC50 values were calculated therefrom.

GSPT1 = target: T2, GSPT1 (Homo sapiens, UniProt P15170+Q96SW2); assay: Western-blot assay, substrate protein degradation in hPBMCs: GSPT1; assay type: cell-based; conditions: 24 hours of compound treatment, 50 nM and 500 nM
T2 construct: effects of the compounds of the present disclosure on the expression of target proteins in cells; endogenous in cells; host or cells: human PBMCs (hPBMCs)

IKZF2 = target: T3, IKZF2 (Homo sapiens, UniProt Q96SW2+Q9UKS7); assay: Western-blot assay, substrate protein degradation in hPBMCs: IKZF2; assay type: cell-based; conditions: 24 hours of compound treatment, 50 nM and 500 nM
T3 construct: effects of the compounds of the present disclosure on the expression of target proteins in cells; endogenous in cells; host or cells: human PBMCs (hPBMCs)

WEE1 = target: T4, WEE1 (Homo sapiens, UniProt P30291+Q96SW2); assay: Western-blot assay, substrate protein degradation in hPBMCs: WEE1; assay type: cell-based; conditions: 24 hours of compound treatment, 50 nM and 500 nM
T4 construct: effects of the compounds of the present disclosure on the expression of target proteins in cells; endogenous in cells; host or cells: human PBMCs (hPBMCs)

IKZF1 = target: T5, IKZF1 (Homo sapiens, UniProt Q13422+Q96SW2); assay: Western-blot assay, substrate protein degradation in hPBMCs: IKZF1; assay type: cell-based; conditions: 24 hours of compound treatment, 50 nM and 500 nM
T5 construct: effects of the compounds of the present disclosure on the expression of target proteins in cells; endogenous in cells; host or cells: human PBMCs (hPBMCs)

H292 = assay: Cell viability assay (CellTiter-Meiluncell Luminescent), tumor cell proliferation, H292; conditions: Homo sapiens, NCI-H292, 96 h; for inhibition at 0.01 µM: read-out: Inhibition Rate at 10 nM (%); for inhibition at 0.5 µM: read-out: Inhibition Rate at 500 nM (%)
MDA-MB-231 = assay: Cell viability assay (CellTiter-Meiluncell Luminescent), tumor cell proliferation, MDA-MB-231; conditions: Homo sapiens, MDA-MB-231, 96 h
CK1α = target: T6, CK1α (Homo sapiens, UniProt P48729+Q96SW2); assay: Western-blot assay, substrate protein degradation in hPBMCs: CK1α; assay type: cell-based; conditions: 24 hours of compound treatment, 50 nM and 500 nM
T6 construct: effects of the compounds of the present disclosure on the expression of target proteins in cells; endogenous in cells; host or cells: human PBMCs (hPBMCs)

IKZF3 = target: T7, IKZF3 (Homo sapiens, UniProt Q96SW2+Q9UKT9); assay: Western-blot assay, substrate protein degradation in hPBMCs: IKZF3; assay type: cell-based; conditions: 24 hours of compound treatment, 50 nM and 500 nM
T7 construct: effects of the compounds of the present disclosure on the expression of target proteins in cells; endogenous in cells; host or cells: human PBMCs (hPBMCs)
T7 sequence (Q9UKT9 whole entry): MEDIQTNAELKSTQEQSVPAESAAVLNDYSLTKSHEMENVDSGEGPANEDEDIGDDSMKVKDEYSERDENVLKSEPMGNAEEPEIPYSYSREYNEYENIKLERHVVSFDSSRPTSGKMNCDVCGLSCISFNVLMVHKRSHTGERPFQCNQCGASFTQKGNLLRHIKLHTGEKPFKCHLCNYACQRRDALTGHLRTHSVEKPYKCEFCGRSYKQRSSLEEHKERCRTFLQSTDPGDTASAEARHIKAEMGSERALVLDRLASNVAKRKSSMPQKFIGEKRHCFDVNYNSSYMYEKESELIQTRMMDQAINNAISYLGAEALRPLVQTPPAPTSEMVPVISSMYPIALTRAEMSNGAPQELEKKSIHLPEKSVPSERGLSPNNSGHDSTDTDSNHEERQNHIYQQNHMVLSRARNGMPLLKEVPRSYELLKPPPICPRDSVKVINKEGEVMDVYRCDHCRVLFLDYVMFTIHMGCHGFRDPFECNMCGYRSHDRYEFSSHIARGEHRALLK
T7 sequence (Q96SW2 whole entry): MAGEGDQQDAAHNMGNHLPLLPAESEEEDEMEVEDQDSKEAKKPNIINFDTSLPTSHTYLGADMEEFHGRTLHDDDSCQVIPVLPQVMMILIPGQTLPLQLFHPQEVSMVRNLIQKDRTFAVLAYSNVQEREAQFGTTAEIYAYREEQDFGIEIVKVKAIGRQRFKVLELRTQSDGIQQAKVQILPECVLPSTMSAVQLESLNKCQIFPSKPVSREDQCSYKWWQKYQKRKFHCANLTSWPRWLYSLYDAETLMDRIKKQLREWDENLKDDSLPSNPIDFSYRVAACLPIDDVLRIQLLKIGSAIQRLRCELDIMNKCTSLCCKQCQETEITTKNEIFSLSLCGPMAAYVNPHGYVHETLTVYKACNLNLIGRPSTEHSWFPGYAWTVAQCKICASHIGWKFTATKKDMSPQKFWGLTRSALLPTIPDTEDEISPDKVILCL
T7 sequence (Q16531 whole entry partner): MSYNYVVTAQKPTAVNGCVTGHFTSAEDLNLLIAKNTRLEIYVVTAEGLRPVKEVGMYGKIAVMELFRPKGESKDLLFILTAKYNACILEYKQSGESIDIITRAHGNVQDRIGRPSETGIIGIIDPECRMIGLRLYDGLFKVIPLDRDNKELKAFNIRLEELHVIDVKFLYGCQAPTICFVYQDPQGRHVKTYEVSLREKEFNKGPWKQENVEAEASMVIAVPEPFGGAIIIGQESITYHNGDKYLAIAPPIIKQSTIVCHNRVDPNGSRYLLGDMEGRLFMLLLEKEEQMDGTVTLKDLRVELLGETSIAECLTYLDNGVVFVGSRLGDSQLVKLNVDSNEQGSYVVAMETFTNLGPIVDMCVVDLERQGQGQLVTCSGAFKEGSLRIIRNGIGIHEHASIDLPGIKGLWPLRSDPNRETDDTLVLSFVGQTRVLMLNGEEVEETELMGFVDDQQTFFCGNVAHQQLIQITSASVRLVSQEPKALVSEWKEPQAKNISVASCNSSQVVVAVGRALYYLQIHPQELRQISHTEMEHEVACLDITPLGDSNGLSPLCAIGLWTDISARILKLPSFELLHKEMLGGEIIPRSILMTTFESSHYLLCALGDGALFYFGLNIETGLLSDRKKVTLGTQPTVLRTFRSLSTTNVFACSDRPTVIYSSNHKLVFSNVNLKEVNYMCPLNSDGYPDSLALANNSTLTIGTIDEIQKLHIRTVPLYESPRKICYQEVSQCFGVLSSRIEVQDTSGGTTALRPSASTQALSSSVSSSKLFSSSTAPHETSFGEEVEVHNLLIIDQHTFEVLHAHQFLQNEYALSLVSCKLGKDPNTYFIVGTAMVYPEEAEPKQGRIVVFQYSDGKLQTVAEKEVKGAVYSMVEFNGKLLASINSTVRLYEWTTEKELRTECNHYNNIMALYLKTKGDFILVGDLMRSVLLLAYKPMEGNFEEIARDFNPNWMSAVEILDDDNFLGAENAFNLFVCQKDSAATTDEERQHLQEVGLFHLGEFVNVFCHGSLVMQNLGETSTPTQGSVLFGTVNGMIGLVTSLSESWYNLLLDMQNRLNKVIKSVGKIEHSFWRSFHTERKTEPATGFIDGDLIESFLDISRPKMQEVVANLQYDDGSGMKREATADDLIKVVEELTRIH

T1 sequence (Q96SW2 whole entry): as the sequence (Q96SW2 whole entry) above
T3 sequence (Q9UKS7 whole entry): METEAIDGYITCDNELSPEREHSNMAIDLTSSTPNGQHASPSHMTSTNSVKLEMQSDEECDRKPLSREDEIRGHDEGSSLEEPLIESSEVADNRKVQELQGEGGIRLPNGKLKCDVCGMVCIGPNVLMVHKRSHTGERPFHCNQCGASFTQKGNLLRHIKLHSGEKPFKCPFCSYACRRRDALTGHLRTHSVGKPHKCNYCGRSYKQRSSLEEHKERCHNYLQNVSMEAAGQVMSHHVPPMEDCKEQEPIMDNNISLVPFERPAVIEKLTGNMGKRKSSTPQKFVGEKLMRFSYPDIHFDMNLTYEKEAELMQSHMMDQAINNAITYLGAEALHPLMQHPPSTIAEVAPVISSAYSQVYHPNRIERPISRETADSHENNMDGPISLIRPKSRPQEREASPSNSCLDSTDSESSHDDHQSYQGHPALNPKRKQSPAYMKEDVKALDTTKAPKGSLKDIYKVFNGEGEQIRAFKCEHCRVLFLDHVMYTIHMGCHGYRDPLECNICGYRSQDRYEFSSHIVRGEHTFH
T3 sequence (Q96SW2 whole entry): as the sequence (Q96SW2 whole entry) above
T3 sequence (Q16531 whole entry partner): as the sequence (Q16531 whole entry partner) above
T6 sequence (P48729 whole entry): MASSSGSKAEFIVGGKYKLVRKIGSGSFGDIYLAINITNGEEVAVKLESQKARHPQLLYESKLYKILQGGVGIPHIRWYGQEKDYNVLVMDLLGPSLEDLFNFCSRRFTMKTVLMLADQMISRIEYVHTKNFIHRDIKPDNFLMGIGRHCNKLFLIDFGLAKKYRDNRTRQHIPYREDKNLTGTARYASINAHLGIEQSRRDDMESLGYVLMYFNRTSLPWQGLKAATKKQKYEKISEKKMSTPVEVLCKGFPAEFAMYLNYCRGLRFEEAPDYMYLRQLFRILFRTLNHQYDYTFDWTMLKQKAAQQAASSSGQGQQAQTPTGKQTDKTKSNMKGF
T6 sequence (Q96SW2 whole entry): as the sequence (Q96SW2 whole entry) above
T6 sequence (Q16531 whole entry partner): as the sequence (Q16531 whole entry partner) above
T2 sequence (P15170 whole entry): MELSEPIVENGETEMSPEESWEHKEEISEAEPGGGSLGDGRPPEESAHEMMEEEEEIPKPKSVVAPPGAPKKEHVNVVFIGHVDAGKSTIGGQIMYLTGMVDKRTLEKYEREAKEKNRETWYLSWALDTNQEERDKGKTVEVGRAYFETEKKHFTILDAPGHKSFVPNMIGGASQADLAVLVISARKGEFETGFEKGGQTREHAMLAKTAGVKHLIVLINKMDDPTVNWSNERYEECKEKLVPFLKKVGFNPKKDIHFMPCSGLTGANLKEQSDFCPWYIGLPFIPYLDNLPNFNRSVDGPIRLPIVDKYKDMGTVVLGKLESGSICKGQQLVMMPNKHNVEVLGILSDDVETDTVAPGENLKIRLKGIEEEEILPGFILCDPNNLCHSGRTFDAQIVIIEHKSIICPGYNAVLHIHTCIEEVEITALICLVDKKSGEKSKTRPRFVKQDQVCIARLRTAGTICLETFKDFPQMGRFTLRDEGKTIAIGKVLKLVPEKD
T2 sequence (Q96SW2 whole entry): as the sequence (Q96SW2 whole entry) above
T2 sequence (Q16531 whole entry partner): as the sequence (Q16531 whole entry partner) above
T4 sequence (P30291 whole entry): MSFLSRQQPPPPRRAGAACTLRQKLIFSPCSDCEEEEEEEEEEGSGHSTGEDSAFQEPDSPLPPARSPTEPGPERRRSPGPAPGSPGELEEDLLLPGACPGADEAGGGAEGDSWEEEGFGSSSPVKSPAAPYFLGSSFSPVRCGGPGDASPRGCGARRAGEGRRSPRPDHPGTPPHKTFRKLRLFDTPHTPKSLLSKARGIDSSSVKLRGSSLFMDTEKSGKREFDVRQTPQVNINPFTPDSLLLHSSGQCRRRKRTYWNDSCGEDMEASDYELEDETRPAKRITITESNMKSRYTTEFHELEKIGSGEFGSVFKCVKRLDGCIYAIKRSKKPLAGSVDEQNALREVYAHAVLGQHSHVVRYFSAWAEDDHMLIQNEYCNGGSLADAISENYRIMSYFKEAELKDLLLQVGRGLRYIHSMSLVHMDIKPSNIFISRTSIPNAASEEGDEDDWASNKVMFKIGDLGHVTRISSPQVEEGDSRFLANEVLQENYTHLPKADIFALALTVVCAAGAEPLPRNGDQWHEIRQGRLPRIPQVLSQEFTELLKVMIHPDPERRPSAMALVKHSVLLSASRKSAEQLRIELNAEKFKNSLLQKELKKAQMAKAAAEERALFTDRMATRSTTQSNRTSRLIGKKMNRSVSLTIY
T4 sequence (Q96SW2 whole entry): as the sequence (Q96SW2 whole entry) above
T4 sequence (Q16531 whole entry partner): as the sequence (Q16531 whole entry partner) above

Row | pIC50 ([1]; 3 hours at room temperature) | IC50 (MM.1S) [nM] | inhibition at 0.5 µM [1] [%] | inhibition at 2 µM [1] [%] | Compound | inhibition at 0.01 µM (MV-4-11) [%] | inhibition at 0.5 µM (MV-4-11) [%] | substrate protein remaining % GSPT1 (GSPT1) | substrate protein remaining % IKZF2 (IKZF2) | substrate protein remaining % WEE1 (WEE1) | substrate protein remaining % IKZF1 (IKZF1) | inhibition at 0.01 µM (H292) [%] | inhibition at 0.5 µM (H292) [%] | inhibition at 0.01 µM (MDA-MB-231; read-out: Inhibition Rate at 10 nM (%)) [%] | inhibition at 0.5 µM (MDA-MB-231; read-out: Inhibition Rate at 500 nM (%)) [%] | substrate protein remaining % CK1α (CK1α) | substrate protein remaining % IKZF3 (IKZF3)
1 |  |  | 20 to 30 | 60 to 80 | Cc1nc(C2CCN(Cc3ccc4c(c3)CN(N3CCC(=O)NC3=O)C4=O)CC2)c2c(-c3ccccc3)csc2n1 [GT-08087, 1-(5-((4-(2-methyl-5-phenylthieno[2,3-d]pyrimidin-4-yl)piperidin-1-yl)methyl)-1-oxoisoindolin-2-yl)dihydropyrimidine-2,4(1H,3H)-dione] | 30 to 40 | 30 to 40 |  |  |  |  |  |  |  |  |  | 
2 |  |  | 30 to 40 | 60 to 80 | Cc1nc(C2=CCN(Cc3ccc4c(c3)CN(N3CCC(=O)NC3=O)C4=O)CC2)c2c(-c3ccccc3)csc2n1 [GT-08176, 1-(5-((4-(2-methyl-5-phenylthieno[2,3-d]pyrimidin-4-yl)-3,6-dihydropyridin-1(2H)-yl)methyl)-1-oxoisoindolin-2-yl)dihydropyrimidine-2,4(1H,3H)-dione] | 60 to 80 | 30 to 40 |  |  |  |  | 15 to 20 | 20 to 40 |  |  |  | 

The next lines start with the compound.

Row | Compound | pIC50 ([1]; 3 hours at room temperature) | IC50 (MM.1S) [nM] | inhibition at 0.5 µM [1] [%] | inhibition at 2 µM [1] [%] | inhibition at 0.01 µM (MV-4-11) [%] | inhibition at 0.5 µM (MV-4-11) [%] | substrate protein remaining % GSPT1 (GSPT1) | substrate protein remaining % IKZF2 (IKZF2) | substrate protein remaining % WEE1 (WEE1) | substrate protein remaining % IKZF1 (IKZF1) | inhibition at 0.01 µM (H292) [%] | inhibition at 0.5 µM (H292) [%] | inhibition at 0.01 µM (MDA-MB-231; read-out: Inhibition Rate at 10 nM (%)) [%] | inhibition at 0.5 µM (MDA-MB-231; read-out: Inhibition Rate at 500 nM (%)) [%] | substrate protein remaining % CK1α (CK1α) | substrate protein remaining % IKZF3 (IKZF3)
3 | N#Cc1ccc(N2CCN(Cc3ccc(COc4cccc5c4CN(N4CCC(=O)NC4=O)C5=O)cc3)CC2)c(F)c1 [GT-06132, 4-(4-(4-(((2-(2,4-dioxotetrahydropyrimidin-1(2H)-yl)-1-oxoisoindolin-4-yl)oxy)methyl)benzyl)piperazin-1-yl)-3-fluorobenzonitrile] | 5.82 to 6.00 | 100 to 300 |  |  |  |  |  |  |  |  |  |  |  |  |  | 
4 | Cc1nc(N2CCN(Cc3ccc4c(c3)CN(N3CCC(=O)NC3=O)C4=O)CC2)c2c(-c3ccccc3)csc2n1 [GT-08066, 1-(5-((4-(2-methyl-5-phenylthieno[2,3-d]pyrimidin-4-yl)piperazin-1-yl)methyl)-1-oxoisoindolin-2-yl)dihydropyrimidine-2,4(1H,3H)-dione] |  |  | 20 to 30 | 60 to 80 | 18 to 25 | 10 to 18 | B (80%< substrate protein remaining %≤ 100%) | A (0% ≤ substrate protein remaining % ≤ 80%) | B (80%< substrate protein remaining %≤ 100%) | B (80%< substrate protein remaining %≤ 100%) | 20 to 40 | 20 to 40 | 15 to 18 | 15 to 18 | A (0% ≤ substrate protein remaining % ≤ 80%) | B (80%< substrate protein remaining %≤ 100%)
5 | Cc1nc(C2=CCN(Cc3ccc4c(c3)CN(N3CCC(=O)NC3=O)C4=O)CC2)c2c3c(sc2n1)CCCC3 [GT-08177, 1-(5-((4-(2-methyl-5,6,7,8-tetrahydrobenzo[4,5]thieno[2,3-d]pyrimidin-4-yl)-3,6-dihydropyridin-1(2H)-yl)methyl)-1-oxoisoindolin-2-yl)dihydropyrimidine-2,4(1H,3H)-dione] |  |  | 20 to 30 | 53 to 60 | 40 to 60 | 30 to 40 |  |  |  |  | 10 to 15 | 10 to 15 |  |  |  | 
